Measured values reported in US20250236607A1, “CYCLIN-DEPENDENT KINASE 9 (CDK9) DEGRADERS AND METHODS OF USING THEREOF” (OHIO STATE INNOVATION FOUNDATION, priority 2022, published 2025).
In brackets after ≈: the same amount, converted by molar mass. Several values for one entry are separate records, joined by “and”; a condition that tells them apart may be missing. Identical values can stand only once. Like-named read-outs stand apart in the source and are kept apart here.

What was measured:
Kinetic solubility assay = details: kinetic solubility, PBS pH 7.4; for solubility at 1.5 h: phosphate buffered saline, pH 7.4, aqueous buffer, kinetic from dmso stock, Solubility (μM)
Procedure: (§3) Kinetic Solubility Assay. Kinetic solubility (KS) was measured according to Millipore protocol PC2445 EN00. Test compounds were weighed and diluted with DMSO to 10 mM. From the stock solutions as well as blank (100% DMSO) was taken 17.5 μL and diluted to 500 μM with 332.5 μL of 100 mM phosphate Buffered Saline (PPBS) at pH 7.4 in a 96-well quartz plate. From the 500 μM solutions was taken 150 μL and dispensed into a 96-well Millipore filter plate (Product number: MSSLBPC10). In the quartz plate, serial dilutions were performed down to 0.5 μM using the 100 mM PBS solution, leaving 100 μL of each test sample at 11 different concentrations, representing standards. These steps were performed in triplicate, at minimum, for each test compound. Both plates were shaken on an orbital shaker at 150 rpm for 1.5 hours. The contents of the filter plate were filtered and 100 μL of the filtrate from each well was dispensed into the quartz plate containing standards. The quartz plate was then analyzed using a UV plate reader where absorbance was measured at the relevant wavelength for each compound. After blank subtraction, for each test sample, solubility was determined based on the optical density of filtered samples and the equations derived from the corresponding linear standard curve.

MOLM13 cells [1] = test: Cytotoxicity against MOLM13 cells; type: cell-based
From the text: (§1) Through amide coupling using I-ethyl-3-carbodiimide hydrochloride (EDC.HCl), the alkynyl derivatives of 4.16, 4.29 and 4.30 were synthesized. Using these VIP152-derivatives, degraders 4.31, 4.33 and 4.34 were synthesized using click chemistry. Degrader 4.32 was also synthesized using amide coupling conditions with (1-[Bis([…])methylene]-1H-1,2,3-triazolo[4,5-b]pyridinium 3-oxide hexafluorophosphate (HATU) and the carboxylic acid 4.28. Scheme 7 illustrates the synthesis of this initial series. The series was evaluated for cytotoxicity against MOLM13 cells (IC50) and for their CDK9 degradation potency (DC50). The results are provided in Table 3.

CDK9 [2] = molecular target: T1, CDK9 (Homo sapiens, UniProt P50750+Q96SW2); test: CDK9 degradation potency (DC50) of VIP152-based degraders; type: cell-based; details: VIP152-based series
T1 construct: endogenous in cells
From the text: as §1

MOLM13 cells [3] = test: Protein shift experiment, cytotoxicity in FBS vs human serum, MOLM13; type: cell-based
From the text: In order to determine the suitability of the lead compounds for advanced biological studies, the four degraders (4.49, 4.62, 4.72 and 4.78) were selected for a protein-shift analysis due to their higher potency and solubility.

[4] = Chromatographic log D determination (log k′80); type: physicochemical; details: chromatographic log D, PLRP-S column, pH 7.72
Procedure: Chromatographic Log D Determination. Test samples were prepared from 10 mM stock solutions in DMSO, to make 122 μM solutions in acetonitrile. Retention times were determined on a Shimadzu High Performance Liquid Chromatography (HPLC) system with Agilent PLRP-S column, 100 Å, 5 um particle size, 50×4.6 mm (part no.: PL1512-1500) with 1 mL/min flow rate. A 65 mM aqueous solution of ammonium acetate was prepared in water and diluted with acetonitrile to give 0.1% ammonium acetate 20:80 acetonitrile solution with pH 7.72. Eluents were detected with UV spectrophotometry at 337 nm. As a standard set, the retention times of β-estradiol, nifedipine, quinoline, phenol and 2-nitrophenol were determined (log k′80) and the dead time was extrapolated based on the reported log k′80 values originally reported by Caron et. al (log k′80*). The average value of the dead time for the standard set was 0.3001 minutes. Therefore, for consistency, 0.3 minutes was used as the dead time for all test samples. Experiments were performed in triplicate with a maximum percent standard deviation of 6.85%.

CDK9 [5] = molecular target: T1, CDK9; test: CDK9 degradation, automated western blot, triazole-containing AT7519 degraders (MV411); type: cell-based; details: for DC50: CDK9 degradation, MV411 cells; for Dmax (%) / Dmax: maximum percent CDK9 degradation; for Dmax: MV4-11
Procedure: (§2) The obtained compounds were tested in biological experiments to measure their potency in inhibiting the growth of AML cells and in their degradation of CDK9. These measurements are reported as half-maximum growth inhibitory and half-maximum degradation concentrations, IC50s and DC50s, respectively. Maximum percent degradation (Dmax) values were also obtained during the CDK9 degradation assessments. The common MTS assay was used to acquire the IC50 values, while the DC50 values were obtained using an automated western blot experiment. These values are presented in Table 2, along with pIC50 (log(nM IC50)) to more accurately reflect the differences/lack thereof in in vitro cytotoxicity. The notation “N:N*” represents the number of linker atoms on each side of the rigid triazole ring for a given degrader. Predicted log D values, calculated using the ChemAxon […], are also provided for each degrader. To characterize the physicochemical properties of the new degrader series, two additional assays were performed: a kinetic aqueous solubility assay and the chromatographic log D experiment described earlier. Aqueous solubility is shown in μM while experimentally determined log D is shown as log k′80. Details regarding the execution of each experiment are provided below.

[6] = pH 7.4
Procedure: as §3

MV411 cells = test: MTS cytotoxicity assay against MV411 cells; type: cell-based
Procedure: as §2

[7] = cytotoxicity, MOLM13 cells, read-out: IC50
[8] = MOLM13, fetal bovine serum, read-out: IC50 (μM) FBS
[9] = MOLM13, human serum, read-out: IC50 (μM) HS
[10] = Homo sapiens, MOLM-13, cytotoxicity, MOLM13 cells, read-out: IC50
[11] = Homo sapiens, MOLM-13, MOLM13, fetal bovine serum, read-out: IC50 (μM) FBS
[12] = MOLM-13, MOLM13, human serum, read-out: IC50 (μM) HS
[13] = growth inhibition, MV411 cells, MTS, read-out: IC50
[14] = Homo sapiens, MV4-11, defined as log(nM IC50), MV411, read-out: pIC50 (converted)
[15] = Homo sapiens, MV4-11, growth inhibition, MV411 cells, MTS, read-out: IC50

T1 sequence (P50750 whole entry): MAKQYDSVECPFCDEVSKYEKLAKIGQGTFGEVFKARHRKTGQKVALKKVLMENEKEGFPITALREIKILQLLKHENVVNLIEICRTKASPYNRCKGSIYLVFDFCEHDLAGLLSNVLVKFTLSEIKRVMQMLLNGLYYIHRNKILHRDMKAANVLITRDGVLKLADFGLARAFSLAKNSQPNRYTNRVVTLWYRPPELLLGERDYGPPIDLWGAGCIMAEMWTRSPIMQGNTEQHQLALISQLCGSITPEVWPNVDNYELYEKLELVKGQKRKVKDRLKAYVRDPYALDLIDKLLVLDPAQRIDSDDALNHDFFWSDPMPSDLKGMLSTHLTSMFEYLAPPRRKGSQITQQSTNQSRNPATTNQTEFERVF
T1 sequence (O60563 whole entry partner): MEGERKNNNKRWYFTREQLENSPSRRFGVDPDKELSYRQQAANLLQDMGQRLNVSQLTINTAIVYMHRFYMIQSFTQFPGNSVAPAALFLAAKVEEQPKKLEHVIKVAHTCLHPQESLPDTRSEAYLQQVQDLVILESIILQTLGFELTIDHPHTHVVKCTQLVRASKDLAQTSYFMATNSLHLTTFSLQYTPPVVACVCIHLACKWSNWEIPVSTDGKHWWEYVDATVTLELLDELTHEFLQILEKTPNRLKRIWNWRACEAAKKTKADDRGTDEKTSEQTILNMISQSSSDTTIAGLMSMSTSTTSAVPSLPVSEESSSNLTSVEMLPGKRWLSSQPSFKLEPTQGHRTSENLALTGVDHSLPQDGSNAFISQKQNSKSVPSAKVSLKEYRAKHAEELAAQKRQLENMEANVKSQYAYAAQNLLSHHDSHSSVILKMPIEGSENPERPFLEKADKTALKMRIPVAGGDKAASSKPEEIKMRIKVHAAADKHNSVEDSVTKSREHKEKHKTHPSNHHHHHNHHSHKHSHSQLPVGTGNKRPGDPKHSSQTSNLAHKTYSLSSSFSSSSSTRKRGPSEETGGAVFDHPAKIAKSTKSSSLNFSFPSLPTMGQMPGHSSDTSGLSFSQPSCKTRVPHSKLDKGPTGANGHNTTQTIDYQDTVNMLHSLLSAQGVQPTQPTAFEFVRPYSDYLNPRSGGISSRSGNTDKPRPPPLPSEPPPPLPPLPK
T1 sequence (Q96SW2 whole entry): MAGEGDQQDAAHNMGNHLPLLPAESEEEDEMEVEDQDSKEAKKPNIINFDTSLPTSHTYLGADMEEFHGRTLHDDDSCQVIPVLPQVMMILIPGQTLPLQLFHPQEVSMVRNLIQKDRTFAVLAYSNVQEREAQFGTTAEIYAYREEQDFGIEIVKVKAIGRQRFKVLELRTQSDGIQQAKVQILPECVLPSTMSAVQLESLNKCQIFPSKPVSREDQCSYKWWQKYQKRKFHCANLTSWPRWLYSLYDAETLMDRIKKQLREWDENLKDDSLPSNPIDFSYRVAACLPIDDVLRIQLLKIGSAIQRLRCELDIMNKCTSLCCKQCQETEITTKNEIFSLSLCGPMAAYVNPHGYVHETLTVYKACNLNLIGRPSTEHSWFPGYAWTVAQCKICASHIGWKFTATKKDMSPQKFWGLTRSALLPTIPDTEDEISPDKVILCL
T1 sequence (Q16531 whole entry partner): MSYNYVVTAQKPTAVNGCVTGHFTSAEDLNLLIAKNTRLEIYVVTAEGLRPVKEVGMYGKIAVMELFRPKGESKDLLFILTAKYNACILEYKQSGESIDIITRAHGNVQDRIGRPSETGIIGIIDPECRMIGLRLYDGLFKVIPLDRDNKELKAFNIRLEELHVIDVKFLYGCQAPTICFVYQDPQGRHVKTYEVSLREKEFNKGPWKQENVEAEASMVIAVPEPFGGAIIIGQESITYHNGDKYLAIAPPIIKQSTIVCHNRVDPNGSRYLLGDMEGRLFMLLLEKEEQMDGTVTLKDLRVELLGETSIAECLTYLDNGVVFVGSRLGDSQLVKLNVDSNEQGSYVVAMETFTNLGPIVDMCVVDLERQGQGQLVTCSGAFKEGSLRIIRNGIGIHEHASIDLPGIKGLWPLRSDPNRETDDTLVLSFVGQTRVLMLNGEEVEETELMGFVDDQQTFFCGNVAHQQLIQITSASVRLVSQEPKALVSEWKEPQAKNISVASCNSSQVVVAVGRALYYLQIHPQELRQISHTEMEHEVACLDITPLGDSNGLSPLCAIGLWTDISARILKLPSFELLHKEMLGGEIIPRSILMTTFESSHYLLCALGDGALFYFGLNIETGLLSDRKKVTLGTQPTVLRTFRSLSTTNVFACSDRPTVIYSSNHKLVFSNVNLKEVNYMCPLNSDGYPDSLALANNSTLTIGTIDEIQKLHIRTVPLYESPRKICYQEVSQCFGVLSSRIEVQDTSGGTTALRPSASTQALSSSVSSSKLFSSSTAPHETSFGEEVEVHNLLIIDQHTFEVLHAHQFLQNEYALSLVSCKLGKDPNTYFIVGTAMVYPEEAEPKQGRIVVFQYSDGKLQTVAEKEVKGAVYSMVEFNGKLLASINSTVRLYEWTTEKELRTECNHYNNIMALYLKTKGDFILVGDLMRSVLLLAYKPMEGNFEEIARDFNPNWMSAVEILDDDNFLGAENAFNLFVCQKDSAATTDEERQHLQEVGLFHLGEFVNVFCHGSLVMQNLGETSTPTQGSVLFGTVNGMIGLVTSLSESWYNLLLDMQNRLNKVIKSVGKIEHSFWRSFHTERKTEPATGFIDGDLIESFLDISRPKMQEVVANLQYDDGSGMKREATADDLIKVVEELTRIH

Row | Solubility (Kinetic solubility assay) | DC50 (CDK9 [2]) [nM] | logk′80 [4] | solubility at 1.5 h (Kinetic solubility assay) [µM] | DC50 (CDK9 [5]) [nM] | Dmax (%) (CDK9 [5]) | Solubility [6] [µM] | Structure (SMILES) | IC50 (MOLM13 cells [1]; [10]) [nM] | IC50 (MOLM13 cells [3]; [11]) [µM] | IC50 (MOLM13 cells [3]; [12]) [µM] | pIC50 (MV411 cells; defined as log(nM IC50), MV411) | IC50 (MV411 cells; [13]) [nM] | other results
1 | 16 µM and 15.7 µM | 210 | 0.11 |  |  |  |  | COc1cc(F)ccc1-c1cc(Nc2cc(CS(C)(=O)=NC(=O)CN3CCC(c4cn(CC(=O)N5CCN(CCCc6cccc7c6C(=O)N(C6CCC(=O)NC6=O)C7=O)CC5)nn4)CC3)ccn2)ncc1F (centres unmarked) [Compound 4.72, 2-(4-(1-(2-(4-(3-(2-(2,6-dioxopiperidin-3-yl)-1,3-dioxoisoindolin-4-yl)propyl)piperazin-1-yl)-2-oxoethyl)-1H-1,2,3-triazol-4-yl)piperidin-1-yl)-N-(((2-((5-fluoro-4-(4-fluoro-2-methoxyphenyl)pyridin-2-yl)amino)pyridin-4-yl)methyl)(methyl) (oxo)-16-sulfaneylidene) acetamide] |  |  |  |  |  | IC50 (MOLM13 cells [1]; MOLM13, read-out: potency): 150 nM; IC50 (MOLM13 cells [1]; [7]): 180 nM; IC50 (MOLM13 cells [3]; [8]): 0.47 µM; IC50 (MOLM13 cells [3]; [9]): 0.55 µM
2 |  | 70 | 0.13 and 0.16 | 5.2 (≈ 4.76 µg/mL) |  |  |  | COc1cc(F)ccc1-c1cc(Nc2cc(CS(C)(=O)=NC(=O)CCc3cn(CCOCCOCCOc4cccc5c4C(=O)N(C4CCC(=O)NC4=O)C5=O)nn3)ccn2)ncc1F (centres unmarked) [Compound 4.34, 3-(1-(2-(2-(2-((2-(2,6-dioxopiperidin-3-yl)-1,3-dioxoisoindolin-4-yl)oxy)ethoxy)ethoxy)ethyl)-1H-1,2,3-triazol-4-yl)-N-(((2-((5-fluoro-4-(4-fluoro-2-methoxyphenyl)pyridin-2-yl)amino)pyridin-4-yl)methyl)(methyl)(oxo)-16-sulfaneylidene)propenamide] | 60 | 0.29 | 1.52 |  |  | 
3 |  |  | 0.112 |  | 951 | 68.5 | 13.2 (≈ 11.2 µg/mL) | O=C1CCC(N2C(=O)c3cccc(OCCCCn4cc(CCCCCN5CCC(NC(=O)c6n[nH]cc6NC(=O)c6c(Cl)cccc6Cl)CC5)nn4)c3C2=O)C(=O)N1 (centres unmarked) [Compound 4.8b, 4-(2,6-dichlorobenzamido)-N-(1-(5-(1-(4-((2-(2,6-dioxopiperidin-3-yl)-1,3-dioxoisoindolin-4-yl)oxy)butyl)-1H-1,2,3-triazol-4-yl)pentyl)piperidin-4-yl)-1H-pyrazole-3-carboxanmide] |  |  |  | 2.1 | 130 | 
4 |  |  | 0.106 |  | 404 | 58.6 | 31.3 (≈ 26.1 µg/mL) | O=C1CCC(N2C(=O)c3cccc(OCCCn4cc(CCCCCN5CCC(NC(=O)c6n[nH]cc6NC(=O)c6c(Cl)cccc6Cl)CC5)nn4)c3C2=O)C(=O)N1 (centres unmarked) [Compound 4.7c, 4-(2,6-dichlorobenzamido)-N-(1-(5-(1-(3-((2-(2,6-dioxopiperidin-3-yl)-1,3-dioxoisoindolin-4-yl)oxy)propyl)-11H-1,2,3-triazol-4-yl)pentyl)piperidin-4-yl)-1H-pyrazole-3-carboxamide] |  |  |  | 2.3 | 194 | 
5 |  |  | 0.184 | 2.38 (≈ 2.15 µg/mL) | 74.6 |  |  | O=C1CCC(N2C(=O)c3cccc(OCCCCCCCn4cc(CCCCCCN5CCC(NC(=O)c6n[nH]cc6NC(=O)c6c(Cl)cccc6Cl)CC5)nn4)c3C2=O)C(=O)N1 (centres unmarked) [Compound 4.9a, 4-(2,6-dichlorobenzamido)-N-(1-(6-(1-(7-((2-(2,6-dioxopiperidine-3-yl)-1,3-dioxoisoindolin-4-yl)oxy)heptyl)-1H-1,2,3-triazol-4-yl)hexyl)piperidin-4-yl)-1H-pyrazole-3-carboxamide] |  |  |  |  |  | Dmax (CDK9 [5]): 86.2%; IC50 (MV411 cells; [14]): 79.4 nM; IC50 (MV411 cells; [15]): 72.8 nM
6 |  | 820 | 0.18 | 28.9 (≈ 26.4 µg/mL) |  |  |  | COc1cc(F)ccc1-c1cc(Nc2cc(CS(C)(=O)=NC(=O)CN3CCC(CN4CCC(COc5cccc6c5C(=O)N(C5CCC(=O)NC5=O)C6=O)CC4)CC3)ccn2)ncc1F (centres unmarked) [Compound 4.78, 2-(4-{[4-({[2-(2,6-dioxopiperidin-3-yl)-1,3-dioxo-2,3-dihydro-1H-isoindol-4-yl]-oxy}methyl)piperidin-1-yl]methyl}piperidin-1-yl)-N-{[(2-{[5-fluoro-4-(4-fluoro-2-methoxyphenyl)pyridin-2-yl]amino}pyridin-4-yl)methyl](methyl)oxo-λ^6-sulfanylidene}acetamide] | 410 | 0.52 | 0.49 |  |  | 
7 | 58.2 µM (≈ 57 µg/mL) | 220 |  | ~60 (≈ 58.8 µg/mL) |  |  |  | COc1cc(F)ccc1-c1cc(Nc2cc(CS(C)(=O)=NC(=O)CN3CCN(Cc4cn(C5CN(C(=O)CNc6cccc7c6C(=O)N(C6CCC(=O)NC6=O)C7=O)C5)nn4)CC3)ccn2)ncc1F (centres unmarked) [Compound 4.49, 2-(4-((1-(1-((2-(2,6-dioxopiperidin-3-yl)-1,3-dioxoisoindolin-4-yl)glycyl)azetidin-3-yl)-1H-1,2,3-triazol-4-yl)methyl)piperazin-1-yl)-N-(((2-((5-fluoro-4-(4-fluoro-2-methoxyphenyl)pyridin-2-yl)amino)pyridin-4-yl)methyl)(methyl) (oxo)-16-sulfaneylidene) acetamide] | 420 | 0.67 | 1.24 |  |  | IC50 (MOLM13 cells [1]; Homo sapiens, MOLM-13, text, MOLM13, read-out: potency): 420 nM
8 |  |  | 0.100 |  | 130 | 67.5 | 12.4 (≈ 10.3 µg/mL) | O=C1CCC(N2C(=O)c3cccc(OCCCCn4cc(CCCCN5CCC(NC(=O)c6n[nH]cc6NC(=O)c6c(Cl)cccc6Cl)CC5)nn4)c3C2=O)C(=O)N1 (centres unmarked) [Compound 4.7a, 4-(2,6-dichlorobenzamido)-N-(1-(4-(1-(4-((2-(2,6-dioxopiperidin-3-yl)-1,3-dioxoisoindolin-4-yl)oxy)buty)-1H-1,2,3-triazol-4-yl)butyl)piperidin-4-yl)-1H-pyrazole-3-carboxamide] |  |  |  | 2.4 | 241 | 
9 |  |  | 0.116 | 12.9 (≈ 10.9 µg/mL) | 98.9 |  |  | O=C1CCC(N2C(=O)c3cccc(OCCCn4cc(CCCCCCN5CCC(NC(=O)c6n[nH]cc6NC(=O)c6c(Cl)cccc6Cl)CC5)nn4)c3C2=O)C(=O)N1 (centres unmarked) [Compound 4.8c, 4-(2,6-dichlorobenzamido)-N-(1-(6-(1-(3-((2(2,6-dioxopiperidin-3-yl)-1,3-dioxoisoindolin-4-yl)oxy)propyl)-1H-1,2,3-triazol-4-yl)hexyl)piperidin-4-yl)-1H-pyrazole-3-carboxamide] |  |  |  |  |  | Dmax (CDK9 [5]): 75.3%; IC50 (MV411 cells; [14]): 79.4 nM; IC50 (MV411 cells; [15]): 71.3 nM

Row | Structure (SMILES) | Solubility (Kinetic solubility assay) | DC50 (CDK9 [2]) [nM] | logk′80 [4] | solubility at 1.5 h (Kinetic solubility assay) [µM] | DC50 (CDK9 [5]) [nM] | Dmax (%) (CDK9 [5]) | Solubility [6] [µM] | IC50 (MOLM13 cells [1]; [10]) [nM] | IC50 (MOLM13 cells [3]; [11]) [µM] | IC50 (MOLM13 cells [3]; [12]) [µM] | pIC50 (MV411 cells; defined as log(nM IC50), MV411) | IC50 (MV411 cells; [13]) [nM] | other results
10 | COc1cc(F)ccc1-c1cc(Nc2cc(CS(C)(=O)=NC(=O)C3CCCN(Cc4cn(C5CN(C(=O)CNc6cccc7c6C(=O)N(C6CCC(=O)NC6=O)C7=O)C5)nn4)C3)ccn2)ncc1F (centres unmarked) [Compound 4.62] | 13.8 µM (≈ 13.3 µg/mL) | 150 | 0.11 |  |  |  |  |  |  |  |  |  | IC50 (MOLM13 cells [1]; [7]): 360 nM; IC50 (MOLM13 cells [3]; [8]): 0.49 µM; IC50 (MOLM13 cells [3]; [9]): 1.34 µM
